Measurements from patent US8030498B2, “Benzoylpyrazole compounds and herbicides containing them” (Ishihara Sangyo Kaisha, Ltd., priority 2005, dated 2011).

Assays:
Format in all cases: in vivo
Settings in all cases: visually observed 17th to 23rd day after application
[1] = test system: barnyardgrass (Echinochloa crus-galli L.); experiment: Test Example 1: foliar treatment, growth inhibition rate, barnyardgrass
Source text: (§1) Upland field soil was put into a 1/170,000 hectare pot, and seeds of various plants were sown. When the respective plants reached predetermined leaf stage ((1) barnyardgrass (Echinochloa crus-galli L.); 0.8 to 2.5 leaf stage, (2) crabgrass (Digitaria sanguinalis L.): 0.5 to 3.0 leaf stage, (3) greenfoxtail (Setaria viridis L.): 1.0 to 3.0 leaf stage, (4) redroot pigweed (Amaranthus retroflexus L.): cotyledon stage to 2.0 leaf stage, (5) prickly sida (Sida spinosa L.): cotyledon stage to 1.1 leaf stage, (6) velvetleaf (Abutilon theophrasti MEDIC.): cotyledon stage to 1.5 leaf stage, (7) rice (Oryza sativa L.): 1.0 to 2.5 leaf stage, (8) wheat (Triticum spp.): 1.7 to 3.4 leaf stage, (9) corn (Zea mays L.): 2.0 to 3.5 leaf stage, and (10) soybean (Glycine max Merr.): primary leaf stage to 0.3 leaf stage), wettable powders or emulsifiable concentrates of the compounds of the present invention prepared in accordance with a conventional preparation method, were weighed so that the active ingredients became the prescribed amounts, and diluted with water in an amount corresponding to 500 liter per 1 hectare. 0.1 vol % of an agricultural spreader was further added to the respective diluted liquids, followed by foliar treatment with a small sprayer.
(§2) On the 17th to 23rd day after application, the state of growth of the respective plants was visually observed, and the herbicidal effect was evaluated in accordance with a growth inhibition rate (%) of 0 (equivalent to the non-treated area) to 100% (complete kill).

[2] = test system: crabgrass (Digitaria sanguinalis L.); experiment: Test Example 1: foliar treatment, growth inhibition rate, crabgrass
Source text: as §1, §2

[3] = test system: greenfoxtail (Setaria viridis L.); experiment: Test Example 1: foliar treatment, growth inhibition rate, greenfoxtail
Source text: as §1, §2

[4] = test system: redroot pigweed (Amaranthus retroflexus L.); experiment: Test Example 1: foliar treatment, growth inhibition rate, redroot pigweed
Source text: as §1, §2

[5] = test system: prickly sida (Sida spinosa L.); experiment: Test Example 1: foliar treatment, growth inhibition rate, prickly sida
Source text: as §1, §2

[6] = test system: velvetleaf (Abutilon theophrasti MEDIC.); experiment: Test Example 1: foliar treatment, growth inhibition rate, velvetleaf
Source text: as §1, §2

rice (Oryza sativa L.) = experiment: Test Example 1: foliar treatment, growth inhibition rate, rice
Source text: as §1, §2

corn (Zea mays L.) = experiment: Test Example 1: foliar treatment, growth inhibition rate, corn
Source text: as §1, §2

[7] = test system: soybean (Glycine max Merr.); experiment: Test Example 1: foliar treatment, growth inhibition rate, soybean
Source text: as §1, §2

wheat (Triticum spp.) = experiment: Test Example 1: foliar treatment, growth inhibition rate, wheat
Source text: as §1, §2

SMILES	Growth inhibition rate (%) Barnyardgrass ([1]; 31 g/ha active ingredient) [%]	Growth inhibition rate (%) Crabgrass ([2]; 31 g/ha active ingredient) [%]	Growth inhibition rate (%) Greenfoxtail ([3]; 31 g/ha active ingredient) [%]	Growth inhibition rate (%) redroot pigweed ([4]; 31 g/ha active ingredient) [%]	Growth inhibition rate (%) Prickly sida ([5]; 31 g/ha active ingredient) [%]	Growth inhibition rate (%) Velvetleaf ([6]; 31 g/ha active ingredient) [%]	Growth inhibition rate (%) Rice (rice (Oryza sativa L.); 31 g/ha active ingredient) [%]	Growth inhibition rate (%) Corn (corn (Zea mays L.); 31 g/ha active ingredient) [%]	Growth inhibition rate (%) Soybean ([7]; 31 g/ha active ingredient) [%]	Growth inhibition rate (%) Barnyardgrass ([1]; 63 g/ha active ingredient) [%]	Growth inhibition rate (%) Crabgrass ([2]; 63 g/ha active ingredient) [%]	Growth inhibition rate (%) Greenfoxtail ([3]; 63 g/ha active ingredient) [%]	Growth inhibition rate (%) redroot pigweed ([4]; 63 g/ha active ingredient) [%]	Growth inhibition rate (%) Prickly sida ([5]; 63 g/ha active ingredient) [%]	Growth inhibition rate (%) Velvetleaf ([6]; 63 g/ha active ingredient) [%]	Growth inhibition rate (%) Rice (rice (Oryza sativa L.); 63 g/ha active ingredient) [%]	Growth inhibition rate (%) Wheat (wheat (Triticum spp.); 63 g/ha active ingredient) [%]	Growth inhibition rate (%) Corn (corn (Zea mays L.); 63 g/ha active ingredient) [%]	Growth inhibition rate (%) Soybean ([7]; 63 g/ha active ingredient) [%]	Growth inhibition rate (%) Wheat (wheat (Triticum spp.); 31 g/ha active ingredient) [%]
COCCOc1c(S(C)(=O)=O)ccc(C(=O)c2cnn(C)c2OC(=O)SC(C)(C)C)c1C [compound 241]	100	98	100	100	90	100	90	0	100	–	–	–	–	–	–	–	–	–	–	–
CCSC(=O)Oc1c(C(=O)c2ccc(S(C)(=O)=O)c(CC3OCCO3)c2C)cnn1C [compound 238]	–	–	–	–	–	–	–	–	–	100	98	98	100	98	100	90	10	0	98	–
CCSC(=O)Oc1c(C(=O)c2ccc(S(C)(=O)=O)c(OCC3OCCO3)c2Cl)cnn1CC [compound 227]	–	–	–	–	–	–	–	–	–	100	100	100	100	60	100	30	0	0	95	–
C=C(C)CSC(=O)Oc1c(C(=O)c2ccc(S(C)(=O)=O)c(C(=O)OC)c2C)cnn1CC [compound 101]	100	100	100	100	70	98	98	30	90	–	–	–	–	–	–	–	–	–	–	10
CCSC(=O)Oc1c(C(=O)c2ccc(S(C)(=O)=O)c(CN(CC#N)C(=O)SCC)c2C)cnn1C [compound 228]	–	–	–	–	–	–	–	–	–	98	60	40	40	40	70	0	0	0	80	–
CCC(C)SC(=O)Oc1c(C(=O)c2ccc(S(C)(=O)=O)c(OCCOC)c2C)cnn1C (stereo not drawn) [compound 239]	98	100	100	–	80	100	85	0	100	–	–	–	–	–	–	–	–	–	–	–
CCSC(=O)Oc1c(C(=O)c2ccc(S(C)(=O)=O)c(CC(N)=S)c2C)cnn1C [compound 232]	–	–	–	–	–	–	–	–	–	90	95	95	–	70	90	95	0	0	90	–
